Structures are written as SMILES.

For the assay, the target named is Inositol 1,4,5-trisphosphate-gated calcium channel ITPR3 (Bos taurus, UniProt Q8WN95). The assay is described as follows: Binding affinity towards Inositol 1,4,5-trisphosphate receptor was evaluated by the standard competitive binding assay using 1.25 nM [3H]D-I(1,4,5)P3 binding protein, prepared from bovine adrenal cortex. The class given is tissue-based.
Sequence of Inositol 1,4,5-trisphosphate-gated calcium channel ITPR3 (Q8WN95 whole entry): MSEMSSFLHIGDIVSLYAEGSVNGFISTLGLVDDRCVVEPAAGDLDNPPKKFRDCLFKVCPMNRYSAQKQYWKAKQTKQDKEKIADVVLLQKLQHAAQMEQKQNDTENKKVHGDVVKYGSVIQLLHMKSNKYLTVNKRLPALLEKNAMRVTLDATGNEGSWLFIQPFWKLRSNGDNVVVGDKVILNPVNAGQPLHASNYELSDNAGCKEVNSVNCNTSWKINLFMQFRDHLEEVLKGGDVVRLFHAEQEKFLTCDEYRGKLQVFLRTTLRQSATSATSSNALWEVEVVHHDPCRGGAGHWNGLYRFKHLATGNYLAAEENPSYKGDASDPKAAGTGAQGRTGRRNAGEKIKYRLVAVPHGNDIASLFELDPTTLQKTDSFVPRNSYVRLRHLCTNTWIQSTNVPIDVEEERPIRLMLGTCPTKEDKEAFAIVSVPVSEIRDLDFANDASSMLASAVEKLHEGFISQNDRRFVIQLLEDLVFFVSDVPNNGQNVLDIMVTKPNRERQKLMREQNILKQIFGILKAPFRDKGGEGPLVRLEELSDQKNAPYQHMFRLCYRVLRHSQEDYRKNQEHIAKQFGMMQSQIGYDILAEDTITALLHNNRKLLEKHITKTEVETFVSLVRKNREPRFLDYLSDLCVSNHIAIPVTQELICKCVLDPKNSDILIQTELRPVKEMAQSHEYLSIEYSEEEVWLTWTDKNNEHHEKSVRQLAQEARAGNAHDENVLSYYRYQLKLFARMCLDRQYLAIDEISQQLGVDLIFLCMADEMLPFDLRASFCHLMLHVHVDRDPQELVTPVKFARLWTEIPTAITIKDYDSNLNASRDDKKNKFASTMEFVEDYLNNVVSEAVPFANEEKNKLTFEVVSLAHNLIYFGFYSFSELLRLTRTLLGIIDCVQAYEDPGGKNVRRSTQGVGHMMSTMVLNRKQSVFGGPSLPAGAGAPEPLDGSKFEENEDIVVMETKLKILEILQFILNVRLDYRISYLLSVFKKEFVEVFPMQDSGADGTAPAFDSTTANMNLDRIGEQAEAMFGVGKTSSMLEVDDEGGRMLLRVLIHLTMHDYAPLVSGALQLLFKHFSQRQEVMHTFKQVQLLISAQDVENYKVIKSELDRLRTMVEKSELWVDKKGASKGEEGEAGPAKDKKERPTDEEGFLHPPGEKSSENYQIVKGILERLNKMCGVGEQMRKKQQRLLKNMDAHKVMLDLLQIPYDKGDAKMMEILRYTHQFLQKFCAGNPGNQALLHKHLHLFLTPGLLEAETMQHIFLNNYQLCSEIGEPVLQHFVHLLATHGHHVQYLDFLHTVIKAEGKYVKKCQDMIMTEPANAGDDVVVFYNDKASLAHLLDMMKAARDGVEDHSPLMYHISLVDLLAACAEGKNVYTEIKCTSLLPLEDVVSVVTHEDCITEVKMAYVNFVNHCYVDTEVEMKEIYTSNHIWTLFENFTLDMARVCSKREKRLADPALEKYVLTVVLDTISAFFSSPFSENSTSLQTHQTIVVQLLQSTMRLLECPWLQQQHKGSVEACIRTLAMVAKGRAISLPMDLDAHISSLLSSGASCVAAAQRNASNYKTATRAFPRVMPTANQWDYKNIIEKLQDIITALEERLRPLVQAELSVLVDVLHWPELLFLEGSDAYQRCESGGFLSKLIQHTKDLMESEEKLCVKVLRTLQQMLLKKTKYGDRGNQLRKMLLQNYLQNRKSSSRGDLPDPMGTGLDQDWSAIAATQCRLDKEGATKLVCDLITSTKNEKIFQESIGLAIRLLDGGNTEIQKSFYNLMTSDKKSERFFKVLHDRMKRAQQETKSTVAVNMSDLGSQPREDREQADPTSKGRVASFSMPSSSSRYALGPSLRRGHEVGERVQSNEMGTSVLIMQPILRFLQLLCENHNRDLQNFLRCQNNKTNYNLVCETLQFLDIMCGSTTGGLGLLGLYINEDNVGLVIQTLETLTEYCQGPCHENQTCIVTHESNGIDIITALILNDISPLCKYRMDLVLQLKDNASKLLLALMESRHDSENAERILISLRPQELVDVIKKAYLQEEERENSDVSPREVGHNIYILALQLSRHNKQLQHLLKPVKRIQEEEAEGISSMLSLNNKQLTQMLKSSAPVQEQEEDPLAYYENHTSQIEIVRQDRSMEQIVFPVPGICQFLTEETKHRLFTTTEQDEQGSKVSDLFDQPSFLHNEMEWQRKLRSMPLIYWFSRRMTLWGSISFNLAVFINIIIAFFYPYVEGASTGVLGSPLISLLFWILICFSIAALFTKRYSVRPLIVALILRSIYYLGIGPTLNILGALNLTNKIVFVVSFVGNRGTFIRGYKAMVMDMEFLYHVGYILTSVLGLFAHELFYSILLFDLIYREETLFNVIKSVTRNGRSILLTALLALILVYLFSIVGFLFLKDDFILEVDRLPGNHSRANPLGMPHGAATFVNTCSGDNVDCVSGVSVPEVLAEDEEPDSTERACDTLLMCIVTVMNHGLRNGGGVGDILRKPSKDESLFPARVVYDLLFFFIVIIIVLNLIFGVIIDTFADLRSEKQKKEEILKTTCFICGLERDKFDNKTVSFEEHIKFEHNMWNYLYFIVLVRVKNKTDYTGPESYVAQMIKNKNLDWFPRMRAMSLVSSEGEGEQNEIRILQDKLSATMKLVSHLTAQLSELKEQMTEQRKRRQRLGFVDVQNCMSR

In the case of `O=P(O)(O)O[C@@H]1[C@@H](O)[C@H](OP(=O)(O)O)[C@@H](OP(=O)(O)O)[C@H](O)[C@@H]1OP(=O)(O)O`, the IC50 was 0.598 µM. As for `O=P(O)(O)O[C@@H]1[C@@H](O)[C@@H](OP(=O)(O)O)[C@@H](OP(=O)(O)O)[C@H](O)[C@H]1OP(=O)(O)O`, the IC50 stood at 0.0134 µM.

These data come from ChEMBL document CHEMBL1131653, “Syntheses of D- and L-myo-inositol 1,2,4,5-tetrakisphosphate and stereoselectivity of the I(1,4,5)P3 receptor binding” (Bioorg Med Chem Lett, 1998).
